{"source": "PubChem BioAssay AID1259411", "about": "(Chemical Carcinogenesis Research Information System (CCRIS), 2018)", "test_system": "rodent carcinogenicity bioassays, tumor incidence", "assay": "CCRIS carcinogenicity studies", "method_in_brief": "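NCI-built, expert-reviewed records of carcinogenicity and related test outcomes (mutagenicity, tumor promotion/inhibition) compiled from published and report sources, historical span 1985-2011, not updated.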", "note": "Calls of active or inactive are those of the source. No rule for the calls is given here.", "data": [{"smiles": "CCCN(CCC)S(=O)(=O)c1ccc(C(=O)O)cc1", "values": [{"measurement": "carcinogen call", "setting": "Species: MOUSE, Strain/Sex: B6C3F1/FEMALE, Route: GAVAGE, Dose: 0, 100, 400 MG/KG IN CORN OIL 5 D/WK FOR 103 WK (STUDY DURATION: 105 WK), Dose: 0, 100, 400 MG/KG IN CORN OIL 5 D/WK FOR 103 WK (STUDY DURATION: 105 WK), Tumor Site: Type of Lesion: LIVER: HEPATOCELLULAR ADENOMA OR CARCINOMA", "value": "active; positive"}, {"measurement": "carcinogen call", "setting": "Species: MOUSE, Strain/Sex: B6C3F1/MALE, Route: GAVAGE, Dose: 0, 100, 400 MG/KG IN CORN OIL 5 D/WK FOR 103 WK (STUDY DURATION: 105 WK), Dose: 0, 100, 400 MG/KG IN CORN OIL 5 D/WK FOR 103 WK (STUDY DURATION: 105 WK)", "value": "inactive; negative"}, {"measurement": "carcinogen call", "setting": "Species: RAT, Strain/Sex: F344/FEMALE, Route: GAVAGE, Dose: 0, 100, 400 MG/KG IN CORN OIL 5 D/WK FOR 103 WK (STUDY DURATION: 104 WK), Dose: 0, 100, 400 MG/KG IN CORN OIL 5 D/WK FOR 103 WK (STUDY DURATION: 104 WK)", "value": "inactive; negative"}, {"measurement": "carcinogen call", "setting": "Species: RAT, Strain/Sex: F344/MALE, Route: GAVAGE, Dose: 0, 100, 400 MG/KG IN CORN OIL 5 D/WK FOR 103 WK (STUDY DURATION: 104 WK), Dose: 0, 100, 400 MG/KG IN CORN OIL 5 D/WK FOR 103 WK (STUDY DURATION: 104 WK)", "value": "inactive; negative"}]}, {"smiles": "CN(C)c1ccc(N=NS(=O)(=O)O)cc1", "values": [{"measurement": "carcinogen call", "setting": "Species: MOUSE, Strain/Sex: B6C3F1/FEMALE, Route: ORAL, Dose: 0, 0.05, 0.10% OF DIET, TWA, Dose: 0, 0.05, 0.10% OF DIET, TWA", "value": "inactive; negative"}, {"measurement": "carcinogen call", "setting": "Species: MOUSE, Strain/Sex: B6C3F1/MALE, Route: ORAL, Dose: 0, 0.10, 0.19% OF DIET, TWA, Dose: 0, 0.10, 0.19% OF DIET, TWA", "value": "inactive; negative"}, {"measurement": "carcinogen call", "setting": "Species: RAT, Strain/Sex: F344/FEMALE, Route: ORAL, Dose: 0, 0.05, 0.10% OF DIET, TWA, Dose: 0, 0.05, 0.10% OF DIET, TWA", "value": "inactive; negative"}, {"measurement": "carcinogen call", "setting": "Species: RAT, Strain/Sex: F344/MALE, Route: ORAL, Dose: 0, 0.05, 0.10% OF DIET, TWA, Dose: 0, 0.05, 0.10% OF DIET, TWA", "value": "inactive; negative"}]}, {"smiles": "CC1=C[C@H]2O[C@@H]3[C@H](O)[C@@H](O)[C@](C)([C@@]2(CO)[C@H](O)C1=O)[C@]31CO1", "values": [{"measurement": "carcinogen call", "setting": "Species: MOUSE, Strain/Sex: C57BL/6CRSLC/FEMALE, Route: ORAL, Dose: 0, 6, 12, 30 PPM IN DIET FOR 104 WK (STUDY DURATION: 104 WK), Dose: 0, 6, 12, 30 PPM IN DIET FOR 104 WK (STUDY DURATION: 104 WK)", "value": "inactive; negative"}]}, {"smiles": "C=CBr", "values": [{"measurement": "carcinogen call", "setting": "Species: RAT, Strain/Sex: SPRAGUE-DAWLEY/FEMALE, Route: INHALATION, Dose: 10, 50, 250, 1250 PPM 6 HR/D 5/WK FOR 24 MO, Dose: 10, 50, 250, 1250 PPM 6 HR/D 5/WK FOR 24 MO, Tumor Site: Type of Lesion: LIVER: ANGIOSARCOMA, EAR (ZYMBAL GLAND): SQUAMOUS CELL CARCINOMA", "value": "active; positive"}, {"measurement": "carcinogen call", "setting": "Species: RAT, Strain/Sex: SPRAGUE-DAWLEY/MALE, Route: INHALATION, Dose: 10, 50, 250, 1250 PPM 6 HR/D 5/WK FOR 24 MO, Dose: 10, 50, 250, 1250 PPM 6 HR/D 5/WK FOR 24 MO, Tumor Site: Type of Lesion: LIVER: ANGIOSARCOMA, EAR (ZYMBAL GLAND): PAPILLOMA, SQUAMOUS CELL CARCINOMA", "value": "active; positive"}]}, {"smiles": "CN(N=O)C(=O)Oc1cccc2ccccc12", "values": [{"measurement": "carcinogen call", "setting": "Species: MOUSE, Strain/Sex: CFLP/FEMALE, Route: DERMAL, Dose: 0, 12.5, 50, 200 UG IN ACETONE 2 D/WK FOR 104 WK (STUDY DURATION: 24 MO), Dose: 0, 12.5, 50, 200 UG IN ACETONE 2 D/WK FOR 104 WK (STUDY DURATION: 24 MO), Tumor Site: Type of Lesion: SKIN: CARCINOMA", "value": "active; positive"}]}, {"smiles": "CCC(=O)CNCN=O", "values": [{"measurement": "carcinogen call", "setting": "Species: HAMSTER, Strain/Sex: SYRIAN/FEMALE, Route: SUBCUTANEOUS, Dose: 4, 8, 16 MG/KG 1/WK FOR LIFE, Dose: 4, 8, 16 MG/KG 1/WK FOR LIFE, Tumor Site: Type of Lesion: NASAL CAVITY: ADENOCARCINOMA, PAPILLOMA, MUCOEPIDERMOID TUMOR, LARYNX OR PHARYNX: PAPILLARY POLYP, PAPILLOMA, ORAL CAVIT, Tumor Site: Type of Lesion: NASAL CAVITY: ADENOCARCINOMA, PAPILLOMA, MUCOEPIDERMOID TUMOR, LARYNX OR PHARYNX: PAPILLARY POLYP, PAPILLOMA, ORAL CAVIT", "value": "active; positive"}, {"measurement": "carcinogen call", "setting": "Species: HAMSTER, Strain/Sex: SYRIAN/MALE, Route: SUBCUTANEOUS, Dose: 2.3, 4.6, 9.2 MG/KG 1/WK FOR LIFE, Dose: 2.3, 4.6, 9.2 MG/KG 1/WK FOR LIFE, Tumor Site: Type of Lesion: NASAL CAVITY: ADENOCARCINOMA, PAPILLOMA, MUCOEPIDERMOID TUMOR, LARYNX OR PHARYNX: PAPILLARY POLYP, PAPILLOMA, ORAL CAVIT, Tumor Site: Type of Lesion: NASAL CAVITY: ADENOCARCINOMA, PAPILLOMA, MUCOEPIDERMOID TUMOR, LARYNX OR PHARYNX: PAPILLARY POLYP, PAPILLOMA, ORAL CAVIT", "value": "active; positive"}]}, {"smiles": "NC1=NCN([C@@H]2O[C@H](CO)[C@@H](O)[C@H]2O)C(=O)N1", "values": [{"measurement": "carcinogen call", "setting": "Species: RAT, Strain/Sex: F344/MALE, Route: INTRAPERITONEAL, Dose: 0, 50 MG/KG IN 0.9% SALINE 3/WK FOR 1 YR (STUDY DURATION: 1 YR)", "value": "inactive; negative"}]}]}
